According to paper PMC5318439, “The Novel Toll-Like Receptor 2 Agonist SUP3 Enhances Antigen Presentation and T Cell Activation by Dendritic Cells” (Frontiers in Immunology, 2017):
Where a SMILES comes first, the peptide text is derived from it. The star is where a group is joined. X1 = CCCCCCCCCCCCCCNC(=O)OC[C@H](C*)OC(=O)NCCCCCCCCCCCCCC; Palmitoyl = CCCCCCCCCCCCCCCC(=O)*

What was measured:
CD8^+ cDCs = experiment: Cytokine production by purified CD8+ cDCs (ELISA); format: cell-based, mice; settings: 200 nM, GM-CSF 20 ng/mL, 24 and 48 h
Procedure: Splenic DCs (5 × 10^5 cells/mL) were stimulated by Pam3 (200 nM), SUP3 (200 nM), or CpG ODN 1668 (20 nM; Adipogen IAX-200-001) in the GM-CSF (20 ng/mL) supplemented medium for indicated periods. Cell culture supernatants were harvested at indicated time points and stored at −40°C. RAW 264.7 cells and GMDCs were stimulated by lipopolysaccharide (LPS) (20 ng/mL; Adipogen IAX-100-013), Pam3, or SUP3 (both at 200 nM) for 24 h. For in vivo administration, Pam3 (2 nmol per mouse), SUP3 (2 nmol per mouse), or LPS (1 µg per mouse) were intravenously (i.v.) injected via tail veins. Serum was obtained through tail vein bleeding and centrifuged after coagulation and stored at −40°C. Cytokines (IL-6, eBioscience 88-7064; TNFα, eBioscience 88-7324; IL-12p40, BioLegend 431604), chemokine (MIP1α, R&D Systems DY450-05), and total IgM (eBioscience, 88-50470) were quantified by ELISA kits following the instructions of manufacturers.
Figure 4 SUP3 stimulated maturation of CD8^+ conventional dendritic cells (cDCs). […] The surface expression of costimulatory and major histocompatibility complex (MHC) molecules were then analyzed by flow cytometry. […] Splenic CD8^+ cDCs were enriched, and surface expression of CD40 and CD86 was analyzed by flow cytometry. […] Supernatants were harvested 24 and 48 h post-stimulation, and cytokines were measured by ELISA. […]

Tlr2^−/− RAW 264.7 cells = experiment: TNFα production by Tlr2−/− RAW 264.7 cells (TLR2 specificity); format: cell-based; settings: 500 nM, 8 h
Procedure: Tlr2^−/− RAW 264.7 cells were generated by lentiviral CRISPR-Cas9 system as described previously ([36]). Briefly, target guide sequences (5′-[…]-3′, 3′-[…]-5′) designed by Genome Engineering 3.0 were ligated into lentiviral vector lentiCRISPR (Addgene 52961). Then lentiCRISPR as well as packaging plasmids pMD2.G (Addgene 12259) and psPax2 (Addgene 12260) were co-transfected into 293FT cells by CaCl2 (12.5 mM) for virus packaging. Fresh cell culture medium was changed 12 h post-transfection. After another 72 h, 293FT cell culture supernatant containing virus was harvested, filtered, and concentrated. Then, RAW 264.7 cells were infected by the virus (~5 × 10^5 TU/mL) with the presence of 8 µg/mL polybrene (Sigma H9268). […]
Splenic DCs (5 × 10^5 cells/mL) were stimulated by Pam3 (200 nM), SUP3 (200 nM), or CpG ODN 1668 (20 nM; Adipogen IAX-200-001) in the GM-CSF (20 ng/mL) supplemented medium for indicated periods. […] Cytokines (IL-6, eBioscience 88-7064; TNFα, eBioscience 88-7324; IL-12p40, BioLegend 431604), chemokine (MIP1α, R&D Systems DY450-05), and total IgM (eBioscience, 88-50470) were quantified by ELISA kits following the instructions of manufacturers.
Figure 1 Specificity and activity of novel TLR2 agonist SUP3. […] The production of cytokines IL-6 and TNFα in culture supernatant was determined by ELISA. *p < 0.05, ****p < 0.0001, “n.s.” indicates statistically non-significant.

CCCCCCCCCCCCCCCC(=O)N[C@@H](CSC[C@@H](COC(=O)NCCCCCCCCCCCCCC)OC(=O)NCCCCCCCCCCCCCC)C(=O)NCC(=O)N[C@@H](CCCCN)C(=O)N[C@@H](CCCCN)C(=O)N[C@@H](CCCCN)C(=O)O [SUP3, (2S,5S,8S,14R,18R)-2,5,8-tris(4-aminobutyl)-4,7,10,13,21-pentaoxo-14-palmitamido-18-((tetradecylcarbamoyl)oxy)-20-oxa-16-thia-3,6,9,12,22-pentaazahexatriacontan-1-oic acid] (Palmitoyl-C(X1)GKKK-OH)
IL-6 and TNFα production by CD8+ cDCs (CD8^+ cDCs): only low levels | TNFα secretion by Tlr2−/− RAW cells (Tlr2^−/− RAW 264.7 cells): no secretion of TNFα

Pam3CSK4 [reference compound]
IL-6 and TNFα production by CD8+ cDCs (CD8^+ cDCs): only low levels | TNFα secretion by Tlr2−/− RAW cells (Tlr2^−/− RAW 264.7 cells): no secretion of TNFα
